Measurements as given in article PMC5743070 (The Journal of Biological Chemistry, 2017).

How the values were obtained:
TTD–PHD (UHRF1_126–366) [1] = target: T1, TTD–PHD (UHRF1_126–366) (Homo sapiens, UniProt Q96T88); experiment: SAXS of TTD–PHD in the presence of BPC
T1 construct: His tag (TEV-cleavable) (N); made in house
T1 sequence (Q96T88 126-366): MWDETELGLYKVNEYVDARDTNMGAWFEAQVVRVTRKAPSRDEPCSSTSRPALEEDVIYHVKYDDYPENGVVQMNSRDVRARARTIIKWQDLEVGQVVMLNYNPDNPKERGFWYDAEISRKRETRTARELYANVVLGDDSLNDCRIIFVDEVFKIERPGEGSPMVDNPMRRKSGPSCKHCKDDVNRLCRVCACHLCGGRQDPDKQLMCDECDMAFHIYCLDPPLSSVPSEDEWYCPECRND
Experimental: All SAXS samples were buffered in 20 mM Tris (pH 7.5), 150 mM NaCl, 5 mM DTT, 5 mM β-mercaptoethanol, 2 mM TCEP and 10 μM ZnCl2, and data were collected at concentrations ranging from ∼1 to 5 mg/ml. Measurements were carried out at Beamline 12-ID-B of the Advanced Photon Source, Argonne National Laboratory. The energy of the X-ray beam was 14 Kev (wavelength λ = 0.8856 Å), and two setups (small- and wide-angle X-ray scattering) were used simultaneously in which the sample to 2M detector distance was adjusted to achieve scattering q values of 0.006 < q < 2.6 Å^−1, where q = (4π/λ)sinθ, and 2θ is the scattering angle. To reduce radiation damage and obtain good statistics, thirty 2D images were recorded for each buffer or sample solution using a flow cell, with an accumulated exposure time of 0.4–2.0 s. No radiation damage was observed as confirmed by the absence of systematic signal changes in sequentially collected X-ray scattering images. The scattering profile of the protein was calculated by subtracting the background buffer contribution from the […] using the program PRIMUS (ATSAS package, EMBL) ([35]). Concentration series measurements for a sample were carried out to remove the scattering contribution caused by interparticle interactions and to extrapolate the data to infinite dilution. Guinier analysis and the experimental radius of gyration (Rg) estimation from the data of infinite dilution were performed using PRIMUS. The pair distance distribution function, P(r), and the maximum dimension of the protein, Dmax, in real space were calculated with the indirect Fourier transform using the program GNOM ([36]). To avoid underestimation of the molecular dimension and consequent distortion in low resolution structural reconstruction, the parameter Dmax, the upper end of distance r, was chosen such that the resulting PDDF has a short, near zero-value tail at large r. The Rg from P(r) analysis was also reported. The molecular weights were estimated using Vc ([37]) in the q range of 0 < q < 0.3 Å^−1. Fifteen ab initio shape reconstructions (molecular envelopes) were generated using DAMMIF ([38]) and averaged with DAMAVER ([39]). The structural models were superimposed and overlaid with the averaged envelope using SUPCOMP ([40]). The theoretical scattering intensity of a structural model was calculated and fitted to the experimental scattering intensity using CRYSOL ([41]).
Table S1 (related to Fig. 1, S1, S4): SAXS parameters for the TTD-PHD module SAXS HTG-TTD-PHDa TTD-PHD/BPCb […]
b UHRF1126-366 in complex with BPC (2 mM, 4% DMSO) […]
d Rg calculated using Guinier fit e Rg calculated using GNOM (5) f Maximum distance between atoms from GNOM g Volume of correlation (6) h Mw estimated from SAXS data using Vc (6). The Mw expected from sequence is shown in parentheses i Normalized spatial discrepancy. The values are the average and standard deviation from fifteen runs

TTD–PHD (UHRF1_126–366) [2] = target: T1, TTD–PHD (UHRF1_126–366); experiment: (1H-15N) TROSY NMR titration of TTD–PHD; format: binding
Experimental: Exchange broadening is clearly observed for Arg^282, Gly^284, Asp^291, Asn^292, Met^294, and Ser^301 amide resonances at 1:3 protein/BPC ratios, with perturbations also seen with Gly^286 and Gly^299 (Fig. 4 and supplemental Fig. S6).
NMR samples were buffered in 20 mM sodium phosphate (pH 7.5), 150 mM NaCl, 5 mM DTT, 5 mM β-mercaptoethanol, 2 mM TCEP, and 10 μM ZnSO4. The protein concentration was between 200 and 300 μM for all samples. The data were collected at 25 °C on Bruker spectrometers equipped with cryoprobes and operating at 500, 600, or 800 MHz. The assignment of backbone TTD–PHD resonances was accomplished using the ABACUS method ([29]) for which standard backbone and ^15N-edited NOESY spectra were collected using ^15N/^13C/^2H- or ^15N/^13C-labeled protein. All 3D experiments were acquired using non-uniform sampling and processed using the software MDDGUI ([30]) or qMDD ([31]). ^15N-Labeled TTD–PHD was used to acquire ^15N T1 and T2 relaxation and ^1H-^15N heteronuclear NOE measurements ([32]) collected using standard Bruker pulse schemes in an interleaved manner. For T1 measurements, the variable delay was set to 0.1, 0.4, 0.8, 1.5, 2.0, 2.5, 3.5, and 5 s. For T2 measurements, the variable delay was set to 16, 32, 48, 64, 80, 96, 128, and 144 ms. The D1 was 3 s for all experiments. Reported values were the average from two measurements. All spectra were processed using NMRPipe ([33]) and analyzed with SPARKY ([34]).

[3] = 2 mM BPC, 4% DMSO, GNOM, Table S1

SMILES: N=C(N)N1CCC(Cc2ccccc2)CC1 [BPC, 4-benzylpiperidine-1-carboximidamide]
- Dmax of TTD-PHD with BPC (TTD–PHD (UHRF1_126–366) [1]; [3]): 94 Å
- Rg real (GNOM) of TTD-PHD with BPC (TTD–PHD (UHRF1_126–366) [1]; [3]): 27.1 Å
- Rg (Guinier fit) of TTD-PHD with BPC (TTD–PHD (UHRF1_126–366) [1]; 2 mM BPC, 4% DMSO, Guinier fit, Table S1): 26.6 Å
- Vc (volume of correlation) of TTD-PHD with BPC (TTD–PHD (UHRF1_126–366) [1]; 2 mM BPC, 4% DMSO, Table S1): 280.5
- Rg (Guinier fit) of TTD–PHD with BPC (TTD–PHD (UHRF1_126–366) [1]; 4 mM BPC, 4% DMSO, 20 mM Tris pH 7.5, 150 mM NaCl, Guinier fit, apo 24.5): 27.1 Å
- Vc (volume of correlation) of TTD–PHD with BPC (TTD–PHD (UHRF1_126–366) [1]; 4 mM BPC, 4% DMSO, apo 274.3): 284.4
- Rg real (GNOM) of TTD–PHD with BPC (TTD–PHD (UHRF1_126–366) [1]; 4 mM BPC, 4% DMSO, from GNOM, apo 24.9): 27.2 Å
- Dmax of TTD–PHD with BPC (TTD–PHD (UHRF1_126–366) [1]; 4 mM BPC, 4% DMSO, from GNOM, apo 83): 94 Å
- shallow secondary shoulder of pair-distance distribution function (TTD–PHD (UHRF1_126–366) [1]; TTD–PHD with BPC (4 mM, 4% DMSO)): ~50 Å
- effect on linker resonances of TTD–PHD (TTD–PHD (UHRF1_126–366) [2]; (1H-15N) TROSY, ~250 μM protein/750 μM ligand): significant conformational broadening and/or movement of amide peaks
- effect on TTD–PHD conformation (TTD–PHD (UHRF1_126–366) [2]; Fig. 4): promote open TTD–PHD conformations
